Data reported in ChEMBL document CHEMBL1201862, “PubChem BioAssay data set” (2004).
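Grown in 96-well plates, cells were treated for 48 hours with each compound at five concentrations. Insufficient inhibition: endpoint recorded as highest concentration tested. GI50: concentration for 50% inhibition of growth.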 The source made the active and inactive calls. Rule as the data show it: active = GI50 up to about 1.1 µM and inactive = higher.

Key:
Assay in all cases: DTP human tumour cell line panel, 48 h
[1] = system: HT-29
[2] = system: SK-MEL-5
[3] = system: OVCAR-3
[4] = system: SNB-19
[5] = system: KM12
[6] = system: SK-MEL-2
[7] = system: UACC-62
[8] = system: IGROV-1
[9] = system: HOP-62
[10] = system: RXF 393
[11] = system: UACC-257
[12] = system: CAKI-1
[13] = system: HOP-92
[14] = system: 786-0
[15] = system: BT-549
[16] = system: NCI-H23
[17] = system: A549
[18] = system: SF-295
[19] = system: NCI-H522

Measured: GI50

COc1cc(C[C@H]2C(=O)OC[C@@H]2Cc2ccc(OC)c(OC)c2)cc(OC)c1
inactive: [1] 33.2 µM | [2] 16.8 µM | [3] 59.3 µM | [4] > 100 µM | [5] 51.6 µM | [6] 78.5 µM | [7] 62.8 µM | [8] > 100 µM | [9] > 100 µM | [10] > 100 µM | [11] 51.5 µM | [12] > 100 µM | [13] 92.9 µM | [14] > 100 µM | [15] 16.8 µM | [16] 39.4 µM | [17] 74.8 µM | [18] 88.1 µM | [19] 64.3 µM

Cn1cncc1CC1COC(=O)C1C(O)c1ccccc1 (centres undefined)
inactive: [1] > 100 µM | [2] > 100 µM | [3] > 100 µM | [4] > 100 µM | [5] > 100 µM | [6] > 100 µM | [7] > 100 µM | [8] > 100 µM | [9] > 100 µM | [10] > 100 µM | [11] > 100 µM | [12] > 100 µM | [13] > 100 µM | [14] > 100 µM | [15] > 100 µM | [16] > 100 µM | [17] > 100 µM | [18] > 100 µM | [19] > 100 µM

O=c1cc(NCc2ccncc2)[nH]c(=O)[nH]1
inactive: [1] > 100 µM | [2] > 100 µM | [3] > 100 µM | [4] > 100 µM | [5] > 100 µM | [6] > 100 µM | [7] > 100 µM | [8] > 100 µM | [9] > 100 µM | [10] > 100 µM | [11] > 100 µM | [12] > 100 µM | [13] > 100 µM | [14] > 100 µM | [15] > 100 µM | [16] > 100 µM | [17] > 100 µM | [18] > 100 µM | [19] > 100 µM

Cc1c(S(=O)(=O)/N=C(\NN)Nc2ccc(Cl)cc2)sc2ccc(Cl)cc12
inactive: [1] 16.6 µM | [2] 17.1 µM | [3] 16.6 µM | [4] 23.3 µM | [5] 15.3 µM | [6] 16.3 µM | [7] 14.2 µM | [8] 15.2 µM | [9] 18.7 µM | [10] 11.1 µM | [11] 18.2 µM | [12] 19 µM | [13] 15.1 µM | [14] 17.5 µM | [15] 16.7 µM | [16] 17.7 µM | [17] 16.9 µM | [18] 17.9 µM | [19] 17.3 µM

Cc1n[nH]c(=O)n1/N=C\CC/C=N\n1c(C)n[nH]c1=O
inactive: [1] > 100 µM | [2] > 100 µM | [3] > 100 µM | [4] > 100 µM | [5] > 100 µM | [6] > 100 µM | [7] > 100 µM | [8] > 100 µM | [9] > 100 µM | [10] > 100 µM | [11] > 100 µM | [12] > 100 µM | [13] > 100 µM | [14] > 100 µM | [15] > 100 µM | [16] > 100 µM | [17] > 100 µM | [18] > 100 µM | [19] > 100 µM

COc1nc(N=P(c2ccccc2)(c2ccccc2)c2ccccc2)cc(=O)[nH]1
inactive: [1] > 100 µM | [2] > 100 µM | [3] > 100 µM | [4] > 100 µM | [5] > 100 µM | [6] > 100 µM | [7] > 100 µM | [8] > 100 µM | [9] > 100 µM | [10] > 100 µM | [11] > 100 µM | [12] > 100 µM | [13] > 100 µM | [14] > 100 µM | [15] > 100 µM | [16] > 100 µM | [17] > 100 µM | [18] > 100 µM | [19] > 100 µM
